This is an account of results in US6649780B1, “Cationic lipids” (Valentis, Inc., priority 1998, dated 2003).

This data set in a line: Liposome formation and sizing after extrusion. The data set is classed as physicochemical. How it is done:
Two mice studies have been performed for the evaluation of cationic lipids of the present invention, in comparison with DOTIM. In brief, the lipid combinations were tested as carriers for gene transfer by intravenous delivery in ICR female mice (25 g), and expression was determined using the plasmid p4119 containing the CAT reporter gene under the control of the HCMV promoter. The lipids were dissolved in a mixture of chloroform and methanol (1.1). Lipid films of cationic and neutral lipid at a 1:1 molar ratio were formed with a rotary evaporator. The films were hydrated with 5% dextrose in water (D5W) at room temperature and extruded through a series of membranes having pore sizes of 400 nm, 200 nm, and 50 nm.
DNA-liposome complexes were prepared at a 1:10 DNA:cationic lipid ratio (mg DNA per μmole cationic lipid) by adding the DNA, in a solution at 0.625 mg/mL concentration in D5W to the solution of liposomes, in an equal volume, with constant stirring, using a Hamilton Dilutor 540B (Hamilton, Reno, Nev.). The lipids used were MBN 246, 247, 248, 249, 250, 251 and 252 (FIG. 10). MBN 249 was used in a 1:10 ratio with cholesterol. MBN 250 was used in a 1:10 ratio with DLPE. The DNA solution was 0.3125 mg/mL DNA in D5W. […] Zeta potential was determined by a Zeta Plus, Zeta Potential Analyzer (Brookhaven Instruments Corp.).

Take “N,N-Dimethyl-N-(2,3-dihydroxypropanylo-N-(2,3-dioleyloxypropanyl)amonium Chloride [MBN305]”: the liposome formation entry is on record as “forms liposomes easily”.
